Measured values published in ChEMBL document CHEMBL2062402, “Discovery of HDAC Inhibitors That Lack an Active Site Zn(2+)-Binding Functional Group” (ACS Med Chem Lett, 2012).
Where a SMILES comes first, the peptide text is derived from it. [ ]: non-standard residue; d: D form. β3hL = CC(C)C[C@H](N)CC(=O)O; Nva = CCC[C@H](N)C(=O)O

How the values were obtained:
HL-60 = assay: cells; type: functional; conditions: Homo sapiens, HL-60, 72 h
Description: Growth inhibition of human HL60 cells after 72 hrs by XTT assay

[1] = biological target: T1, Protein deacetylase HDAC6 (Homo sapiens) (UniProt Q9UBN7); assay: Inhibition of recombinant HDAC6 using Ac-Lys(Ac)-AMC as substrate at 20 uM after 30 mins by fluorescence analysis
T1 sequence (whole entry): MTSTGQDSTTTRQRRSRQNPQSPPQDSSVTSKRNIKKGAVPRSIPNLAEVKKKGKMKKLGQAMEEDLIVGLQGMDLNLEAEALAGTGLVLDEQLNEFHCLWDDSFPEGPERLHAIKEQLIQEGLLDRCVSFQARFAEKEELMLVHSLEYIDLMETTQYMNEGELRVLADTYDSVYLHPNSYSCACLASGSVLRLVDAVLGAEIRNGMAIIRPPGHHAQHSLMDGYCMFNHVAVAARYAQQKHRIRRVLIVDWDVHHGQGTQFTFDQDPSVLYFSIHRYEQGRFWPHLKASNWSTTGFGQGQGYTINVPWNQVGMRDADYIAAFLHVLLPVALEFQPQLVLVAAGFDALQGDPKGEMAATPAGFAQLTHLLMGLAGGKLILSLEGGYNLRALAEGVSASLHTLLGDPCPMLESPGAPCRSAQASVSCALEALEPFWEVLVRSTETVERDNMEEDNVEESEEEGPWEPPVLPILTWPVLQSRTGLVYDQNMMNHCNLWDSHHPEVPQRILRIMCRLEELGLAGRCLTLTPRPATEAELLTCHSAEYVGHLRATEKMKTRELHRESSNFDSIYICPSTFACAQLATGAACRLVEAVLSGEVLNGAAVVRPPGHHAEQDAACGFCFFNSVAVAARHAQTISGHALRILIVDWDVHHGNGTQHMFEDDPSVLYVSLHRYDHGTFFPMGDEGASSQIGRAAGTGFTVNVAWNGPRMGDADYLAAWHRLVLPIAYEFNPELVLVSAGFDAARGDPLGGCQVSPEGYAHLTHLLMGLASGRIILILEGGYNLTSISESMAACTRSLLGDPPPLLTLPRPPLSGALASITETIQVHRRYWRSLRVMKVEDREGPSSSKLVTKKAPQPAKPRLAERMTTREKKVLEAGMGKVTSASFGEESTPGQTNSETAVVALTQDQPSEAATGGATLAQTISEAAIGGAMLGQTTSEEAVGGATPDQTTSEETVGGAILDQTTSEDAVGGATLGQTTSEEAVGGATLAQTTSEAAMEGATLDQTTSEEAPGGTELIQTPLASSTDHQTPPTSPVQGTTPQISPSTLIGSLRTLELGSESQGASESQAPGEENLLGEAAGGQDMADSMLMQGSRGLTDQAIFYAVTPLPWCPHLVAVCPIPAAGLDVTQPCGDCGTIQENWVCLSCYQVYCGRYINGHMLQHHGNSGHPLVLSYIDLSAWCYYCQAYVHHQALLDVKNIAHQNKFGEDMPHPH

[2] = biological target: T2, Protein deacetylase HDAC6 (Homo sapiens, UniProt Q9UBN7); assay: Inhibition of recombinant HDAC6 using Ac-Lys(Ac)-AMC as substrate after 30 mins by fluorescence analysis
T2 sequence (Q9UBN7 whole entry): T1 sequence (whole entry)

[3] = biological target: T3, Histone deacetylase 3/Nuclear receptor corepressor 2 (HDAC3/NCoR2) (Homo sapiens, UniProt O15379); assay: Inhibition of recombinant HDAC3/NCoR2 using Ac-Lys(Ac)-AMC as substrate after 30 mins by fluorescence analysis; type: protein-complex assay
T3 sequence (O15379 whole entry): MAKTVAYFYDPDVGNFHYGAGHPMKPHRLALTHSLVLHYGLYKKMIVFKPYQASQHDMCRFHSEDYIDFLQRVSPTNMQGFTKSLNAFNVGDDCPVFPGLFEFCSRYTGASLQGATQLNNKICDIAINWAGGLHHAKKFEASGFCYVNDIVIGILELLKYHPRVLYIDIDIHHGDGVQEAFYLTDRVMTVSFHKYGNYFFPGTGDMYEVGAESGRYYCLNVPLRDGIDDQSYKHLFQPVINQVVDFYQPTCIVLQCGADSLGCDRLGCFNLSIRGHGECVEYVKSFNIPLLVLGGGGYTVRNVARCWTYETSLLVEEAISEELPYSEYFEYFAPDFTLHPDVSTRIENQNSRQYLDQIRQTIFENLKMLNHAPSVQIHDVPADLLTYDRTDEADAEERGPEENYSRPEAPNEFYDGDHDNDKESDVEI
T3 sequence (Q9Y618 whole entry, further chain): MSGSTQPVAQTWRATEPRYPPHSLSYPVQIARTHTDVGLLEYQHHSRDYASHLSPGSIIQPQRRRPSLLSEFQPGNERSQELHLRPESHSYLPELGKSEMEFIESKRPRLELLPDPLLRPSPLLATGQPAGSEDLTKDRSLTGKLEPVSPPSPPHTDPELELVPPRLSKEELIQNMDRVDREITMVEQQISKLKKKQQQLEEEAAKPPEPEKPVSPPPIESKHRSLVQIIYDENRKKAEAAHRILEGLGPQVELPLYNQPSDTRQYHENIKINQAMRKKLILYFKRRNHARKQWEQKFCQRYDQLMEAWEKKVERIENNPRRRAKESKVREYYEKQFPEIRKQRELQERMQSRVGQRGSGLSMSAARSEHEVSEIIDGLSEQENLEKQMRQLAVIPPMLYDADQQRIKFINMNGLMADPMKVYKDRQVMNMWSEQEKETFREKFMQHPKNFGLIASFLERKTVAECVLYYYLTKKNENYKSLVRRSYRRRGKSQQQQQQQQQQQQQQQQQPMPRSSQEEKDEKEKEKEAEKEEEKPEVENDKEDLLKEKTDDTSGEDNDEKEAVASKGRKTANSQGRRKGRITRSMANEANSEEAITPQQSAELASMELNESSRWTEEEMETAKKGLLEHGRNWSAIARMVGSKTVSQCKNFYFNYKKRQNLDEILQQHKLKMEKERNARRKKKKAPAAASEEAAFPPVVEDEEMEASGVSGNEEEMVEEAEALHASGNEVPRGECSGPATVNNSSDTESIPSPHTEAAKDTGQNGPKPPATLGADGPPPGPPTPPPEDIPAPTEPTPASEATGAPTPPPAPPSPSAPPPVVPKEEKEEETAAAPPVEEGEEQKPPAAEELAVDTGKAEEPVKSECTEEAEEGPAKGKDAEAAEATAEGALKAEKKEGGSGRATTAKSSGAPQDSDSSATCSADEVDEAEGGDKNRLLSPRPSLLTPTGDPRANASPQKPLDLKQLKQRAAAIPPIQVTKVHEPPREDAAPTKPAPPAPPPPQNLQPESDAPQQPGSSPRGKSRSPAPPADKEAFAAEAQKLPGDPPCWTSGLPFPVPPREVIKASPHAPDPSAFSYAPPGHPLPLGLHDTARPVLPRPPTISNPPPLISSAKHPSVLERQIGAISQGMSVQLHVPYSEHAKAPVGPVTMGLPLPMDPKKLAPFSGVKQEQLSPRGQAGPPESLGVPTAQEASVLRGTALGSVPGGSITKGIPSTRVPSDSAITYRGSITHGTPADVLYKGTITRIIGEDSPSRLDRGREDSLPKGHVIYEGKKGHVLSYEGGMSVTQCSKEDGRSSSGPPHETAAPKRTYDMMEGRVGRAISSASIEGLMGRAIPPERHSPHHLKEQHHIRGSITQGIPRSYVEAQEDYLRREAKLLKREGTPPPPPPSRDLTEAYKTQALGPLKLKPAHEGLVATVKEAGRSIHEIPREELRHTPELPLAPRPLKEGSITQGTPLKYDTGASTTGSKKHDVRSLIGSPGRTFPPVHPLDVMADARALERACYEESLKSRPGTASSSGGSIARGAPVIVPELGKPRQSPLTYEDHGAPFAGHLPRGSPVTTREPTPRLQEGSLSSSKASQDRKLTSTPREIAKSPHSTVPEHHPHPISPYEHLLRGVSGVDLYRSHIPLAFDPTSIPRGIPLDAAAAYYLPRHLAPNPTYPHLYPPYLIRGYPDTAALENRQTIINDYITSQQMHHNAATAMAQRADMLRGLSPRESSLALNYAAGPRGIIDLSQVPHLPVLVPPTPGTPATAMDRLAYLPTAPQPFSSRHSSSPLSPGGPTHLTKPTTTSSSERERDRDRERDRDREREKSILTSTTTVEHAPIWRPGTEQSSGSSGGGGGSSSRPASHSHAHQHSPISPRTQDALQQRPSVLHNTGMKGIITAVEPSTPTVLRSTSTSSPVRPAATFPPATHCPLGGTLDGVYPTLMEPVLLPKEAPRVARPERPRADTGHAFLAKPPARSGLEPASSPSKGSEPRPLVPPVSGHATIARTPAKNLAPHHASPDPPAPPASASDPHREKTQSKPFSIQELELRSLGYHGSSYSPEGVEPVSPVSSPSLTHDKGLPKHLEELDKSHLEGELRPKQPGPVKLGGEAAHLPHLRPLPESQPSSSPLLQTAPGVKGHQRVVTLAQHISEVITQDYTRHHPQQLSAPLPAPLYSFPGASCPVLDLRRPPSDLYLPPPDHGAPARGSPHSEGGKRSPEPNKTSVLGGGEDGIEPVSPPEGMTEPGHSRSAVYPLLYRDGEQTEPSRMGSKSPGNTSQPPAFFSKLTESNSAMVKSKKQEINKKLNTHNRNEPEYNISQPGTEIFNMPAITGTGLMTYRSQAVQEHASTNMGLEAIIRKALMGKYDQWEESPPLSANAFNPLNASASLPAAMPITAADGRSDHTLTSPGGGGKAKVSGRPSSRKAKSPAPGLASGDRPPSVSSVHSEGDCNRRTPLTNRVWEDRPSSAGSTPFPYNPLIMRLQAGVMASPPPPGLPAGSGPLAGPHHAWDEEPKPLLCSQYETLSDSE

HeLa = assay: cells; type: functional; conditions: Homo sapiens, 72 h
Description: Growth inhibition of human HeLa cells after 72 hrs by XTT assay

in vitro = conditions: human, HEK293 cells
Description: Growth inhibition of human HEK293 cells after 72 hrs by XTT assay

[4] = Growth inhibition of human HEK293 cells at 100 uM after 72 hrs by XTT assay; type: cell-based; conditions: read-out: GI
Histone deacetylase 2 [5] = biological target: T4, Histone deacetylase 2 (Homo sapiens, UniProt Q92769); assay: Inhibition of recombinant HDAC2 using Ac-Lys(Ac)-AMC as substrate after 30 mins by fluorescence analysis
T4 sequence (Q92769 whole entry): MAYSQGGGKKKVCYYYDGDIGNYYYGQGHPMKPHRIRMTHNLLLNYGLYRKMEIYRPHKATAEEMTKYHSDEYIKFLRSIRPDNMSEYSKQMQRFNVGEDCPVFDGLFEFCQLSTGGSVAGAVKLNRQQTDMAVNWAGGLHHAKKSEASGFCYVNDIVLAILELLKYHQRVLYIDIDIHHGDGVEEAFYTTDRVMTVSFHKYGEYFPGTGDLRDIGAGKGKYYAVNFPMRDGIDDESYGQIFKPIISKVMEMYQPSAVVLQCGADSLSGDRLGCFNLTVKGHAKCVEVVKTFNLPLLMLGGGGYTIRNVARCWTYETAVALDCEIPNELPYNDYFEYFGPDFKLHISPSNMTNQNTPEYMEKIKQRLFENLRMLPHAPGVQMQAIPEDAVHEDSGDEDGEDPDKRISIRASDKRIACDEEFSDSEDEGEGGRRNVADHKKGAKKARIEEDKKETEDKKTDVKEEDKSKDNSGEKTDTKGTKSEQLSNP

Jurkat = assay: cells; type: functional; conditions: Homo sapiens, 72 h
Description: Growth inhibition of human Jurkat cells after 72 hrs by XTT assay

MCF7 = assay: cells; type: functional; conditions: Homo sapiens, MCF7, 72 h
Description: Growth inhibition of human MCF7 cells after 72 hrs by XTT assay

Histone deacetylase 1 [6] = biological target: T5, Histone deacetylase 1 (Homo sapiens, UniProt Q13547); assay: Inhibition of recombinant HDAC1 using Ac-Lys(Ac)-AMC as substrate after 30 mins by fluorescence analysis
T5 sequence (Q13547 whole entry): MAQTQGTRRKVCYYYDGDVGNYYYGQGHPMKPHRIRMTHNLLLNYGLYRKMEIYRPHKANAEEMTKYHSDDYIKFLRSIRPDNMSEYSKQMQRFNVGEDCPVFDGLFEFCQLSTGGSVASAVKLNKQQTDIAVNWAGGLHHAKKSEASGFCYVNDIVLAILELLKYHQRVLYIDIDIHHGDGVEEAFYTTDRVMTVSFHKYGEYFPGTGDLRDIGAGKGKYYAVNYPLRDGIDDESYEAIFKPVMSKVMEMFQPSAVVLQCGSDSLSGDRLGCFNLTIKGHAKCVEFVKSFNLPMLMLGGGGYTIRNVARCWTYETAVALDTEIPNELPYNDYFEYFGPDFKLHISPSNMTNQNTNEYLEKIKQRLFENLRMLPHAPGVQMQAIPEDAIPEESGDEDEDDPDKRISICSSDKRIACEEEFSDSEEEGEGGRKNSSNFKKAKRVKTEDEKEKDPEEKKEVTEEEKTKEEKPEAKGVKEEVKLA

Histone deacetylase 1 [7] = biological target: T5, Histone deacetylase 1; assay: Ratio of IC50 for valproic acid to compound for recombinant HDAC1 using Ac-Lys(Ac)-AMC as substrate after 30 mins by fluorescence analysis
[8] = biological target: T6, Histone deacetylase 3/Nuclear receptor corepressor 2 (HDAC3/NCoR2) (Homo sapiens) (UniProt O15379+Q9Y618); assay: Inhibition of recombinant HDAC3/NCoR2 at 1 uM; type: protein-complex assay
[9] = Ratio of IC50 for valproic acid to compound for recombinant using Ac-Lys(Ac)-AMC as substrate after 30 mins by fluorescence analysis; conditions: Homo sapiens
Histone deacetylase 1 [10] = biological target: T5, Histone deacetylase 1; assay: Competitive inhibition of HDAC1 using Ac-Lys(Ac)-AMC as substrate by Lineweaver-Burk plot analysis
[11] = biological target: T3, Histone deacetylase 3/Nuclear receptor corepressor 2 (HDAC3/NCoR2); assay: Competitive inhibition of HDAC3/NCoR2 using Ac-Lys(Ac)-AMC as substrate by Lineweaver-Burk plot analysis; type: protein-complex assay
[12] = biological target: Histone deacetylase (Homo sapiens) (UniProt Q13547+O15379+Q9UBN7+Q92769+Q9UQL6+Q8WUI4+Q9BY41+Q96DB2+P56524+Q9UKV0+Q969S8); assay: Inhibition of HDAC in human Jurkat cells assessed as increase in acetylated histone H3 after 24 hrs by Western blot analysis; type: cell-based
[13] = biological target: T6, Histone deacetylase 3/Nuclear receptor corepressor 2 (HDAC3/NCoR2) (Homo sapiens); assay: Ratio of IC50 for valproic acid to compound for recombinant HDAC3/NCoR2 using Ac-Lys(Ac)-AMC as substrate after 30 mins by fluorescence analysis; type: protein-complex assay
Histone deacetylase 2 [14] = biological target: T4, Histone deacetylase 2; assay: Ratio of IC50 for valproic acid to compound for recombinant HDAC2 using Ac-Lys(Ac)-AMC as substrate after 30 mins by fluorescence analysis
Histone deacetylase 2 [15] = biological target: T4, Histone deacetylase 2; assay: Competitive inhibition of HDAC2 using Ac-Lys(Ac)-AMC as substrate by Lineweaver-Burk plot analysis

GI50 (HL-60) [µM] | inhibition [1] [%] | IC50 [2] [µM] | IC50 [3] [µM] | GI50 (HeLa) [µM] | GI50 at 72 h (in vitro) [µM] | IC50 (Histone deacetylase 2 [5]) [µM] | GI50 (Jurkat) [µM] | GI50 (MCF7) [µM] | IC50 (Histone deacetylase 1 [6]) [µM] | Ratio IC50 (Histone deacetylase 1 [7]) | inhibition [8] [%] | Ratio IC50 [9] | Ki (Histone deacetylase 1 [10]) [µM] | Ki [11] [µM] | inhibition [12] | Ratio IC50 [13] | Ratio IC50 (Histone deacetylase 2 [14]) | Ki (Histone deacetylase 2 [15]) [µM] | Structure (SMILES) | inhibition at 72 h, 100 µM [4] [%]
8.2 | 37 | > 20 | 1.4 | 81 | > 100 | 1.5 | 12 | 40 | 0.98 | – | – | – | – | – | – | – | – | – | CCC[C@@H]1NC(=O)[C@H](C)NC(=O)C[C@H](CC(C)C)NC(=O)[C@H](Cc2c[nH]c3ccccc23)NC1=O (cyclo(A[Nva]W[β3hL])) | 33
2.8 | 46 | > 20 | 0.8 | 62 | 100 | 1.4 | 8.1 | 47 | 0.68 | 40 | 60 | 40 | 0.049 | 0.037 | Dose-dependent effect | 200 | 40 | 0.033 | CCC[C@@H]1NC(=O)[C@H](C)NC(=O)C[C@H](CC(C)C)NC(=O)[C@H](Cc2cn(CN(C)C)c3ccccc23)NC1=O | –

Structure (SMILES) | GI50 (HL-60) [µM] | inhibition [1] [%] | IC50 [2] [µM] | IC50 [3] [µM] | GI50 (HeLa) [µM] | GI50 at 72 h (in vitro) [µM] | IC50 (Histone deacetylase 2 [5]) [µM] | GI50 (Jurkat) [µM] | GI50 (MCF7) [µM] | IC50 (Histone deacetylase 1 [6]) [µM] | Ratio IC50 (Histone deacetylase 1 [7]) | inhibition [8] [%] | Ratio IC50 [9] | Ki (Histone deacetylase 1 [10]) [µM] | Ki [11] [µM] | inhibition [12] | Ratio IC50 [13] | Ratio IC50 (Histone deacetylase 2 [14]) | Ki (Histone deacetylase 2 [15]) [µM] | inhibition at 72 h, 100 µM [4] [%]
CCC(=O)CCCCC[C@@H]1NC(=O)[C@H]2CCCCN2C(=O)[C@H]([C@@H](C)CC)NC(=O)[C@H](Cc2cn(OC)c3ccccc23)NC1=O [APICIDIN] | 0.28 | – | – | – | 1.4 | 11 | – | 0.83 | 6.8 | – | – | – | – | – | – | – | – | – | – | –
